From the supplement of paper PMC10883282
± gives the standard deviation of the averaged measurements.

Experiments:
Assay in all cases: relative viability vs DMSO control (72 h) (fraction); higher = more viable cells
KHOS-NP = system: KHOS-NP
In short: (§1)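 Sarcoma cell lines in 384-well plates, seeded to reach 80–90% confluence, were given compound after 24 h and kept 72 h at 37 °C, 5% CO2, with 0.1% DMSO vehicle and a 5 µM positive control. Relative viability came from ATPLite as percent growth, averaged over up to triplicate wells. On the rescaled values, 1 equals full and 0 equals none.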

MES-SA = system: MES-SA
In short: as §1

SW872 = system: SW872
In short: as §1

A204 = system: A204
In short: as §1

SW684 = system: SW684
In short: as §1

SK-ES-1 = system: SK-ES-1
In short: as §1

RD = system: RD
In short: as §1

VA-ES-BJ = system: VA-ES-BJ
In short: as §1

SYO-1 = system: SYO-1
In short: as §1

HS729 = system: HS729
In short: as §1

SK-LMS-1 = system: SK-LMS-1
In short: as §1

G401 = system: G401
In short: as §1

N#Cc1ccnc(N2C(=O)CC[C@H]2C(=O)N(c2cncc(F)c2)[C@H](C(=O)NC2CC(F)(F)C2)c2ccccc2Cl)c1 [Ivosidenib]
Settings	relative viability
A204, 0.00017 µM	1.07 ± 0.0082
A204, 0.00051 µM	1.03 ± 0.067
A204, 0.00152 µM	1.11 ± 0.015
A204, 0.00457 µM	1.06 ± 0.035
A204, 0.01372 µM	1.04 ± 0.025
A204, 0.04115 µM	1.03 ± 0.061
A204, 0.1235 µM	1.05 ± 0.059
A204, 0.3704 µM	1.015 ± 0.0067
A204, 1.111 µM	1.06 ± 0.045
A204, 3.333 µM	1.03 ± 0.053
A204, 10 µM	0.971 ± 0.073
G401, 0.00017 µM	0.926 ± 0.036
G401, 0.00051 µM	0.927 ± 0.047
G401, 0.00152 µM	0.971 ± 0.014
G401, 0.00457 µM	1.01 ± 0.017
G401, 0.01372 µM	0.952 ± 0.016
G401, 0.04115 µM	0.934 ± 0.01
G401, 0.1235 µM	0.99 ± 0.028
G401, 0.3704 µM	0.943 ± 0.035
G401, 1.111 µM	0.958 ± 0.017
G401, 3.333 µM	0.929 ± 0.018
G401, 10 µM	0.896 ± 0.0092
HS729, 0.00017 µM	0.966 ± 0.016
HS729, 0.00051 µM	1 ± 0.053
HS729, 0.00152 µM	1.01 ± 0.039
HS729, 0.00457 µM	1.01 ± 0.045
HS729, 0.01372 µM	0.998 ± 0.054
HS729, 0.04115 µM	0.993 ± 0.03
HS729, 0.1235 µM	1.01 ± 0.03
HS729, 0.3704 µM	1 ± 0.039
HS729, 1.111 µM	0.982 ± 0.077
HS729, 3.333 µM	0.949 ± 0.032
HS729, 10 µM	0.96 ± 0.058
KHOS-NP, 0.00017 µM	1.05 ± 0.011
KHOS-NP, 0.00051 µM	1.05 ± 0.031
KHOS-NP, 0.00152 µM	1.07 ± 0.024
KHOS-NP, 0.00457 µM	1.07 ± 0.025
KHOS-NP, 0.01372 µM	1.05 ± 0.02
KHOS-NP, 0.04115 µM	1.05 ± 0.011
KHOS-NP, 0.1235 µM	1.06 ± 0.024
KHOS-NP, 0.3704 µM	1.03 ± 0.013
KHOS-NP, 1.111 µM	1.05 ± 0.024
KHOS-NP, 3.333 µM	1.05 ± 0.023
KHOS-NP, 10 µM	1.06 ± 0.017
MES-SA, 0.00017 µM	0.905 ± 0.038
MES-SA, 0.00051 µM	0.943 ± 0.018
MES-SA, 0.00152 µM	0.932 ± 0.024
MES-SA, 0.00457 µM	0.935 ± 0.019
MES-SA, 0.01372 µM	0.938 ± 0.0098
MES-SA, 0.04115 µM	0.929 ± 0.02
MES-SA, 0.1235 µM	0.933 ± 0.011
MES-SA, 0.3704 µM	0.981 ± 0.022
MES-SA, 1.111 µM	0.976 ± 0.011
MES-SA, 3.333 µM	0.925 ± 0.043
MES-SA, 10 µM	0.8939 ± 0.0085
RD, 0.00017 µM	1.04 ± 0.021
RD, 0.00051 µM	1.02 ± 0.027
RD, 0.00152 µM	1.03 ± 0.04
RD, 0.00457 µM	1.05 ± 0.03
RD, 0.01372 µM	1.05 ± 0.033
RD, 0.04115 µM	1.06 ± 0.029
RD, 0.1235 µM	1.07 ± 0.026
RD, 0.3704 µM	1.03 ± 0.034
RD, 1.111 µM	1.04 ± 0.038
RD, 3.333 µM	1.02 ± 0.04
RD, 10 µM	0.944 ± 0.037
SK-ES-1, 0.00017 µM	0.941 ± 0.033
SK-ES-1, 0.00051 µM	0.962 ± 0.045
SK-ES-1, 0.00152 µM	0.984 ± 0.05
SK-ES-1, 0.00457 µM	1.02 ± 0.076
SK-ES-1, 0.01372 µM	0.988 ± 0.032
SK-ES-1, 0.04115 µM	1.01 ± 0.063
SK-ES-1, 0.1235 µM	1 ± 0.047
SK-ES-1, 0.3704 µM	0.965 ± 0.024
SK-ES-1, 1.111 µM	1 ± 0.038
SK-ES-1, 3.333 µM	0.978 ± 0.041
SK-ES-1, 10 µM	0.983 ± 0.024
SK-LMS-1, 0.00017 µM	1.01 ± 0.013
SK-LMS-1, 0.00051 µM	1.01 ± 0.021
SK-LMS-1, 0.00152 µM	1.033 ± 0.0078
SK-LMS-1, 0.00457 µM	1.04 ± 0.034
SK-LMS-1, 0.01372 µM	1.04 ± 0.012
SK-LMS-1, 0.04115 µM	1.02 ± 0.044
SK-LMS-1, 0.1235 µM	1.03 ± 0.025
SK-LMS-1, 0.3704 µM	0.968 ± 0.067
SK-LMS-1, 1.111 µM	0.997 ± 0.041
SK-LMS-1, 3.333 µM	0.968 ± 0.021
SK-LMS-1, 10 µM	0.954 ± 0.014
SW684, 0.00017 µM	1.056 ± 0.0081
SW684, 0.00051 µM	1.07 ± 0.017
SW684, 0.00152 µM	1.08 ± 0.057
SW684, 0.00457 µM	1.11 ± 0.03
SW684, 0.01372 µM	1.13 ± 0.022
SW684, 0.04115 µM	1.06 ± 0.059
SW684, 0.1235 µM	1.11 ± 0.039
SW684, 0.3704 µM	1.1 ± 0.015
SW684, 1.111 µM	1.1 ± 0.038
SW684, 3.333 µM	1.1 ± 0.054
SW684, 10 µM	1 ± 0.038
SW872, 0.00017 µM	1.03 ± 0.013
SW872, 0.00051 µM	1.04 ± 0.016
SW872, 0.00152 µM	1.04 ± 0.027
SW872, 0.00457 µM	1.052 ± 0.0014
SW872, 0.01372 µM	1.06 ± 0.021
SW872, 0.04115 µM	1.03 ± 0.035
SW872, 0.1235 µM	1.03 ± 0.017
SW872, 0.3704 µM	1.04 ± 0.018
SW872, 1.111 µM	1.05 ± 0.035
SW872, 3.333 µM	1.047 ± 0.0027
SW872, 10 µM	1.04 ± 0.018
SYO-1, 0.00017 µM	1.03 ± 0.039
SYO-1, 0.00051 µM	1.01 ± 0.038
SYO-1, 0.00152 µM	1.07 ± 0.046
SYO-1, 0.00457 µM	1.02 ± 0.055
SYO-1, 0.01372 µM	1.01 ± 0.032
SYO-1, 0.04115 µM	1.01 ± 0.041
SYO-1, 0.1235 µM	1.02 ± 0.064
SYO-1, 0.3704 µM	1.01 ± 0.039
SYO-1, 1.111 µM	1.02 ± 0.034
SYO-1, 3.333 µM	1.01 ± 0.05
SYO-1, 10 µM	1 ± 0.038
VA-ES-BJ, 0.00017 µM	1.03 ± 0.018
VA-ES-BJ, 0.00051 µM	1.02 ± 0.029
VA-ES-BJ, 0.00152 µM	1 ± 0.033
VA-ES-BJ, 0.00457 µM	1.03 ± 0.028
VA-ES-BJ, 0.01372 µM	1.04 ± 0.013
VA-ES-BJ, 0.04115 µM	1.02 ± 0.033
VA-ES-BJ, 0.1235 µM	1.043 ± 0.0091
VA-ES-BJ, 0.3704 µM	1.003 ± 0.0068
VA-ES-BJ, 1.111 µM	1.01 ± 0.051
VA-ES-BJ, 3.333 µM	1.03 ± 0.016
VA-ES-BJ, 10 µM	0.988 ± 0.042
